Laboratory results taken from PubChem BioAssay (NCI).
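Method: 48-hour compound exposure of cells in 96-well plates, five concentrations, linear interpolation of endpoints. GI50 marks 50% less growth. TGI: total growth inhibition.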

Assays:
Assay in all cases: growth of human tumour cells (NCI), 48 h
[1] = test system: MALME-3M melanoma
[2] = test system: NCI/ADR-RES ovarian
[3] = test system: HCT-116 colon
[4] = test system: SF-268 CNS
[5] = test system: OVCAR-5 ovarian
[6] = test system: SK-MEL-5 melanoma
[7] = test system: SW-620 colon
[8] = test system: OVCAR-8 ovarian
[9] = test system: K-562 leukemia
[10] = test system: SK-MEL-2 melanoma
[11] = test system: M14 melanoma
[12] = test system: BT-549 breast
[13] = test system: ACHN renal
[14] = test system: OVCAR-4 ovarian
[15] = test system: SK-MEL-28 melanoma
[16] = test system: HOP-92 NSCLC
[17] = test system: SR leukemia
[18] = test system: IGROV1 ovarian
[19] = test system: UACC-62 melanoma
[20] = test system: SF-539 CNS
[21] = test system: KM12 colon
[22] = test system: NCI-H460 lung
[23] = test system: HL-60(TB) leukemia
[24] = test system: OVCAR-3 ovarian
[25] = test system: NCI-H23 lung
[26] = test system: RPMI-8226 leukemia
[27] = test system: HT29 colon
[28] = test system: SNB-19 CNS
[29] = test system: CCRF-CEM leukemia
[30] = test system: COLO 205 colon
[31] = test system: MDA-MB-231 breast
[32] = test system: MCF7 breast
[33] = test system: SNB-75 CNS
[34] = test system: HOP-62 NSCLC
[35] = test system: SK-OV-3 ovarian
[36] = test system: HCC-2998 colon
[37] = test system: T-47D breast
[38] = test system: MDA-MB-435
[39] = test system: UO-31 renal
[40] = test system: U251 CNS
[41] = test system: HCT-15 colon
[42] = test system: LOX IMVI melanoma
[43] = test system: MOLT-4 leukemia
[44] = test system: A498 renal
[45] = test system: 786-0 renal
[46] = test system: SN12C renal
[47] = test system: NCI-H522 lung
[48] = test system: DU-145 prostate
[49] = test system: SF-295 CNS
[50] = test system: CAKI-1 renal
[51] = test system: PC-3 prostate
[52] = test system: HS 578T breast
[53] = test system: NCI-H226 lung
[54] = test system: UACC-257 melanoma
[55] = test system: EKVX NSCLC
[56] = test system: A549 NSCLC
[57] = test system: RXF 393 renal

**Q.** Which GI50 [1] does the source give for `CC1(C)CCC(S(=O)(=O)c2ccc3c(c2)/C(=N\O)c2cc(S(=O)(=O)N4CCN(c5ccc(F)cc5O)CC4)ccc2-3)CC1` here?
**A.** 141 nM

**Q.** What about the TGI [1] of the same compound?
**A.** 295 nM

**Q.** And the GI50 [2]?
**A.** 443 nM

**Q.** What about the TGI [2] of the same compound?
**A.** 2630 nM

**Q.** What about the GI50 [3] of the same compound?
**A.** 33.2 nM

**Q.** What about the TGI [3] of the same compound?
**A.** 119 nM

**Q.** And the GI50 [4]?
**A.** 109 nM

**Q.** What about the TGI [4] of the same compound?
**A.** 286 nM

**Q.** And the GI50 [5]?
**A.** 164 nM

**Q.** What about the TGI [5] of the same compound?
**A.** 367 nM

**Q.** And the GI50 [6]?
**A.** 179 nM

**Q.** And the TGI [6]?
**A.** 326 nM

**Q.** And the GI50 [7]?
**A.** 46.7 nM

**Q.** What about the TGI [7] of the same compound?
**A.** 168 nM

**Q.** And the GI50 [8]?
**A.** 86.9 nM

**Q.** What about the TGI [8] of the same compound?
**A.** 402 nM

**Q.** What about the GI50 [9] of the same compound?
**A.** 50.8 nM

**Q.** And the TGI [9]?
**A.** 188 nM

**Q.** And the GI50 [10]?
**A.** 73 nM

**Q.** What about the TGI [10] of the same compound?
**A.** 204 nM

**Q.** What about the GI50 [11] of the same compound?
**A.** 35.2 nM

**Q.** What about the TGI [11] of the same compound?
**A.** 144 nM

**Q.** What about the GI50 [12] of the same compound?
**A.** 133 nM

**Q.** And the TGI [12]?
**A.** 286 nM

**Q.** What about the GI50 [13] of the same compound?
**A.** 282 nM

**Q.** And the TGI [13]?
**A.** 1340 nM

**Q.** What about the GI50 [14] of the same compound?
**A.** 63.5 nM

**Q.** And the TGI [14]?
**A.** 263 nM

**Q.** What about the GI50 [15] of the same compound?
**A.** 129 nM

**Q.** What about the TGI [15] of the same compound?
**A.** 293 nM

**Q.** What about the GI50 [16] of the same compound?
**A.** 219 nM

**Q.** And the TGI [16]?
**A.** 504 nM

**Q.** What about the GI50 [17] of the same compound?
**A.** 29.3 nM

**Q.** What about the TGI [17] of the same compound?
**A.** 80.2 nM

**Q.** And the GI50 [18]?
**A.** 149 nM

**Q.** And the TGI [18]?
**A.** 346 nM

**Q.** And the GI50 [19]?
**A.** 71.7 nM

**Q.** What about the TGI [19] of the same compound?
**A.** 221 nM

**Q.** And the GI50 [20]?
**A.** 127 nM

**Q.** And the TGI [20]?
**A.** 270 nM

**Q.** What about the GI50 [21] of the same compound?
**A.** 47.9 nM

**Q.** What about the TGI [21] of the same compound?
**A.** 220 nM

**Q.** What about the GI50 [22] of the same compound?
**A.** 66.1 nM

**Q.** What about the TGI [22] of the same compound?
**A.** 223 nM

**Q.** What about the GI50 [23] of the same compound?
**A.** 98.6 nM

**Q.** And the TGI [23]?
**A.** 288 nM

**Q.** What about the GI50 [24] of the same compound?
**A.** 117 nM

**Q.** And the TGI [24]?
**A.** 285 nM

**Q.** And the GI50 [25]?
**A.** 230 nM

**Q.** And the TGI [25]?
**A.** 583 nM

**Q.** And the GI50 [26]?
**A.** 126 nM

**Q.** And the TGI [26]?
**A.** 1150 nM

**Q.** What about the GI50 [27] of the same compound?
**A.** 44 nM

**Q.** What about the TGI [27] of the same compound?
**A.** 182 nM

**Q.** What about the GI50 [28] of the same compound?
**A.** 211 nM

**Q.** What about the TGI [28] of the same compound?
**A.** 486 nM

**Q.** And the GI50 [29]?
**A.** 93 nM

**Q.** What about the TGI [29] of the same compound?
**A.** 370 nM

**Q.** And the GI50 [30]?
**A.** 54.8 nM

**Q.** What about the TGI [30] of the same compound?
**A.** 183 nM

**Q.** And the GI50 [31]?
**A.** 72.1 nM

**Q.** And the TGI [31]?
**A.** 289 nM

**Q.** And the GI50 [32]?
**A.** 159 nM

**Q.** What about the TGI [32] of the same compound?
**A.** 453 nM

**Q.** What about the GI50 [33] of the same compound?
**A.** 162 nM

**Q.** And the TGI [33]?
**A.** 324 nM

**Q.** And the GI50 [34]?
**A.** 101 nM

**Q.** What about the TGI [34] of the same compound?
**A.** 237 nM

**Q.** What about the GI50 [35] of the same compound?
**A.** 109 nM

**Q.** And the TGI [35]?
**A.** 240 nM

**Q.** What about the GI50 [36] of the same compound?
**A.** 104 nM

**Q.** What about the TGI [36] of the same compound?
**A.** 262 nM

**Q.** And the GI50 [37]?
**A.** 104 nM

**Q.** And the TGI [37]?
**A.** 234 nM

**Q.** And the GI50 [38]?
**A.** 107 nM

**Q.** What about the TGI [38] of the same compound?
**A.** 251 nM

**Q.** What about the GI50 [39] of the same compound?
**A.** 188 nM

**Q.** What about the TGI [39] of the same compound?
**A.** 460 nM

**Q.** What about the GI50 [40] of the same compound?
**A.** 105 nM

**Q.** What about the TGI [40] of the same compound?
**A.** 223 nM

**Q.** And the GI50 [41]?
**A.** 153 nM

**Q.** What about the TGI [41] of the same compound?
**A.** 445 nM

**Q.** And the GI50 [42]?
**A.** 21.3 nM

**Q.** What about the TGI [42] of the same compound?
**A.** 50.4 nM

**Q.** What about the GI50 [43] of the same compound?
**A.** 76.2 nM

**Q.** And the TGI [43]?
**A.** 242 nM

**Q.** What about the GI50 [44] of the same compound?
**A.** 840 nM

**Q.** And the TGI [44]?
**A.** 2630 nM

**Q.** What about the GI50 [45] of the same compound?
**A.** 186 nM

**Q.** And the TGI [45]?
**A.** 415 nM

**Q.** What about the GI50 [46] of the same compound?
**A.** 683 nM

**Q.** What about the GI50 [47] of the same compound?
**A.** 147 nM

**Q.** What about the TGI [47] of the same compound?
**A.** 290 nM

**Q.** What about the GI50 [48] of the same compound?
**A.** 51.7 nM

**Q.** And the TGI [48]?
**A.** 284 nM

**Q.** And the GI50 [49]?
**A.** 176 nM

**Q.** What about the TGI [49] of the same compound?
**A.** 394 nM

**Q.** What about the GI50 [50] of the same compound?
**A.** 157 nM

**Q.** What about the TGI [50] of the same compound?
**A.** 351 nM

**Q.** What about the GI50 [51] of the same compound?
**A.** 108 nM

**Q.** And the TGI [51]?
**A.** 314 nM

**Q.** And the GI50 [52]?
**A.** 163 nM

**Q.** And the TGI [52]?
**A.** 448 nM

**Q.** And the GI50 [53]?
**A.** 206 nM

**Q.** What about the TGI [53] of the same compound?
**A.** 512 nM

**Q.** What about the GI50 [54] of the same compound?
**A.** 165 nM

**Q.** What about the TGI [54] of the same compound?
**A.** 491 nM

**Q.** And the GI50 [55]?
**A.** 152 nM

**Q.** What about the TGI [55] of the same compound?
**A.** 515 nM

**Q.** What about the GI50 [56] of the same compound?
**A.** 68 nM

**Q.** And the TGI [56]?
**A.** 218 nM

**Q.** What about the GI50 [57] of the same compound?
**A.** 157 nM

**Q.** And the TGI [57]?
**A.** 314 nM
